Data on two compounds can be found in US20090239896A1, “AZAINDOLE COMPOUNDS AND USE THEREOF AS PHOSPHOLIPASE-A2 INHIBITORS” (priority 2005, published 2009).

As a reminder, the IC50 is the concentration that gives 50% inhibition.

Series [1] concerns C57BL/6 wild-type mice on high fat/high sucrose diabetogenic diet. Kind of series: in-vivo evaluation in mice on high fat/high sucrose diabetogenic diet (Example 5). Details: species or system mouse. Conditions: for fasting glucose levels: low dose (25 mg/kg/day). The procedure:
Briefly, four groups were set up, each having six mice. Three of the groups included six wild-type PLA2 (+/+) mice in each group (eighteen mice total), and one of the groups included six genetically deficient PLA2 (−/−) mice. One of the wild-type groups was used as a wild-type control group, and was not treated with ILY-4001. The other two wild-type groups were treated with ILY-4001—one group at a lower dose (indicated as “L” in Table 1) of 25 mg/kg/day, and the other at a higher dose (indicated as “H” in Table 1) of 90 mg/kg/day. The group comprising the PLA2 (−/−) mice was used as a positive control group.
The experimental protocol used in this study was as follows. The four groups of mice, including wild type and isogenic PLA2 (−/−) C57BL/J mice were acclimated for three days on a low fat/low carbohydrate diet. After the three day acclimation phase, the animals were ? and serum samples taken to establish baseline plasma cholesterol, triglyceride, and glucose levels, along with baseline body weight. The mice in each of the treatment groups were then fed a high fat/high sucrose diabetogenic diet (Research Diets D12331). 1000 g of the high fat/high sucrose D12331 diet was composed of casein (228 g), DL-methionine (2 g), maltodextrin 10 (170 g), sucrose (175 g), soybean oil (25 g), hydrogenated coconut oil (333.5 g), mineral mix S10001 (40 g), sodium bicarbonate (10.5 g), potassium citrate (4 g), vitamin mix V10001 (10 g), and choline bitartrate (2 g). This diet was supplemented with ILY-4001 treatments such that the average daily dose of the compound ingested by a 25 g mouse was: 0 mg/kg/day (wild-type control group and PLA2 (−/−) control group); 25 mg/kg/day (low-dose wild-type treatment group), or 90 mg/kg/day (high-dose wild-type treatment group). The animals were maintained on the high fat/high sucrose diet, with the designated ILY-4001 supplementation, for a period of ten weeks.
Body weight measurements were taken for all animals in all treatment and control groups at the beginning of the treatment period and at 4 weeks and 10 weeks after initiation of the study. (See Example 5A). Blood draws were also taken at the beginning of the treatment period (baseline) and at 4 weeks and 10 weeks after initiation of the study, in order to determine fasting glucose (See Example 5B). Cholesterol and triglyceride levels were determined from blood draws taken at the beginning of the treatment (baseline) and at ten weeks. (See Example 5C).
In the study generally described above in Example 5, body weight measurements were taken for all animals in all treatment and control groups at the beginning of the treatment period and at 4 weeks and 10 weeks after initiation of the study.
In the study generally described above in Example 5, blood draws were taken at the beginning of the treatment period (baseline) and at 4 weeks and 10 weeks after initiation of the study, in order to determine fasting glucose.
In the study generally described above in Example 5, blood draws were taken at the beginning of the treatment period (baseline) and at 10 weeks after initiation of the study, in order to determine cholesterol and triglyceride levels.

Series [2] is described as follows: pharmokinetic study of ILY-4001, IV and oral (Example 6C). It is filed as in vivo, mice. The conditions noted are these: 30 mg/kg oral. The procedure:
This example evaluated the bioavailability of ILY-4001 [2-(3-(2-amino-2-oxoacetyl)-1-(biphenyl-2-ylmethyl)-2-methyl-1H-indol-4-yloxy)acetic acid], alternatively referred to herein as methyl indoxam. Specifically, a pharmokinetic study was conducted to determine the fraction of unchanged ILY-4001 in systemic circulation following administration.
Bioavailability was calculated as a ratio of AUC-oral/AUC-intravenous (IV). To determine this ratio, a first set of subject animals were given a measured intravenous (IV) dose of ILY-4001, followed by a determination of ILY-4001 levels in the blood at various time points after administration (e.g., 5 minutes through 24 hours). Another second set of animals was similarly dosed using oral administration, with blood levels of ILY-4001 determined at various time points after administration (e.g., 30 minutes through 24 hours). The level of ILY-4001 in systemic circulation were determined by generally accepted methods (for example as described in Evans, G., A Handbook of Bioanalysis and Drug Metabolism. Boca Raton, CRC Press (2004)). Specifically, […]/mass spectrometry/mass spectrometry (LC/MS/MS) analytical methods were used to quantitate plasma concentrations of ILY-4001 after oral and intravenous administration. Pharmacokinetic parameters that were measured include Cmax, AUC, tmax, t1/2, and F (bioavailability). […]

Another series relates to Caco-2 monolayers. Briefly: in-vitro Caco-2 permeability study (Example 6B). Type of series: in vitro ADME, human. As for the experimental part:
The culture medium was refreshed every 48 hours.
Papp=(dQ/dt)X(1/C0)X(1/A)
(Passage across Caco-2 layers is used to estimate intestinal permeability.)

A further series has as its target mouse PLA2 IB enzyme (Mus musculus, UniProt Q9Z0Y2). The conditions noted are these: pyrene substrate release from vesicles; Singer, Ghomashchi et al. 2002; read-out: IC50 value versus the mouse PLA2 IB enzyme; cited from earlier work.
The target of the next series is human PLA2 IB enzyme (Homo sapiens, UniProt P04054). The conditions noted are these: pyrene substrate release from vesicles; Singer, Ghomashchi et al. 2002; read-out: IC50 value versus the human PLA2 IB enzyme; cited from earlier work.
Chain of human PLA2 IB enzyme (P04054 23-148): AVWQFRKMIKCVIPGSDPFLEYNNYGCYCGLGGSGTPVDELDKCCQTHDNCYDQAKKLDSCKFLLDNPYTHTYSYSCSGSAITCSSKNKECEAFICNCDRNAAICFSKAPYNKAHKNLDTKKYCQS
Another series can be described thus: stability at low pH. It is filed as physicochemical. Conditions: predicted to survive passage through the stomach.
Setting [3] is: low and high doses (25 and 90 mg/kg/day), 10 weeks.

Chain of mouse PLA2 IB enzyme (Q9Z0Y2 23-146): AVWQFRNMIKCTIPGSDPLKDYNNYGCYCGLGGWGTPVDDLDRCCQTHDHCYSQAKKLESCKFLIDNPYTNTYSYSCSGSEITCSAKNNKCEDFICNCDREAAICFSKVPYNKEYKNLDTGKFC

For the compound `Cc1c(C(=O)C(N)=O)c2c(OCC(=O)O)cccc2n1Cc1ccccc1-c1ccccc1` [ILY-4001, 2-(3-(2-amino-2-oxoacetyl)-1-(biphenyl-2-ylmethyl)-2-methyl-1H-indol-4-yloxy)acetic acid], the “body weight gain compared to wild-type control group” value in series [1] (25 mg/kg/d and 90 mg/kg/d in diet, week 4 and week 10) was “significantly reduced”. Also, in series [1] (setting [3]), the “plasma levels of cholesterol” value was “substantially reduced”. For the same compound, the “plasma levels of triglycerides” value in series [1] (setting [3]) is “substantially reduced”. Also, the fasting glucose levels result in series [1] (week four) is “moderately beneficial effect”; in series [1] (week ten) it was “a beneficial effect was not observed”. In addition, the “level of non-absorption from the GI tract into systemic circulation” value in series [2] is approximately 72%. Further, the “absorption from the GI lumen” value in the series on Caco-2 monolayers (based on Caco-2 assays and pharmokinetic studies) is “relatively low”. In addition, the IC50 at mouse PLA2 IB enzyme is approximately 150 nM; on human PLA2 IB enzyme, approximately 200 nM. For the same compound, the “stability at low pH” value in the series “stability at low pH” is given as “stable”.

Lucifer Yellow: in the series on Caco-2 monolayers (Caco-2), the apparent permeability result is on record as “around 2.82×10^−7+/−0.37×10^−7 cm/s”.
